Data as given in the supplement of paper PMC11208160.

Test: recombinant UMI read abundance after kanamycin selection (control-corrected) (log10(CPM+1)); higher = more efficient recombination; extreme values may be limits of the assay; sequences stand for … in AGTGCAGAGAAAATCGGCCAGTTTTCTCTGCCTGCAGTCCGCATGCCGTGGGACCCCTTGGGTTCTAACCTGTTGCCTAGATTTATGCAGCGGACTGCCTTTCTCCCAAAGTGATAAACCGG…AGGTTGGTTTCACT; site = the 11-nt donor
In short: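 Counts of recombinant UMIs were reported as log10(CPM+1). Before that, they were converted to CPM, averaged over replicates and scaled using control-derived factors. They came from PCR across the donor–target junction after Escherichia coli carrying the pair library and target plasmid was plated on IPTG (0.07 mM) plus kanamycin, or unselected, in two replicates each.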
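Note: IS621 bridge recombinase in Escherichia coli cells against a fixed T5 target plasmid.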

Sequence	recombinant UMI read abundance (log10)
GGTCAAGCATGGACCGGTTTTCCCGGTAATCCGTATTTGGC (site GGTCAAGCTGC)	1.47
GGTCCATCATGGACCGGTTTTCCCGGTAATCCGTATTTGTA (site GGTCCAACTTA)	0.016
GGTCCATCATGGACCGGTTTTCCCGGTAATCCGTATTTGTA (site GGTCCACCTTA)	0.0104
GGTCCATCATGGACCGGTTTTCCCGGTAATCCGTATTTGTA (site GGTCCAGCTTA)	0.00308
GGTCCATCATGGACCGGTTTTCCCGGTAATCCGTATTTGTA (site GGTCCATCTTA)	0.459
GGTCCCACATGGACCGGTTTTCCCGGTAATCCGTATTTGTA (site GGTCCAACTTA)	0
GGTCCCACATGGACCGGTTTTCCCGGTAATCCGTATTTGTA (site GGTCCCACTTA)	0.0202
GGTCCCACATGGACCGGTTTTCCCGGTAATCCGTATTTGTA (site GGTCCGACTTA)	0.0061
GGTCCCACATGGACCGGTTTTCCCGGTAATCCGTATTTGTA (site GGTCCTACTTA)	0.0287
GGTCGATCATGGACCGGTTTTCCCGGTAATCCGTATTTGCG (site GGTCGATCTCG)	0.598
GGTCGTCCATGGACCGGTTTTCCCGGTAATCCGTATTTGTA (site GGTCGTCCTTA)	0.0245
GGTCTAACATGGACCGGTTTTCCCGGTAATCCGTATTTGTA (site GGTCAAACTTA)	0.0026
GGTCTAACATGGACCGGTTTTCCCGGTAATCCGTATTTGTA (site GGTCCAACTTA)	0
GGTCTAACATGGACCGGTTTTCCCGGTAATCCGTATTTGTA (site GGTCGAACTTA)	0.0128
GGTCTAACATGGACCGGTTTTCCCGGTAATCCGTATTTGTA (site GGTCTAACTTA)	0.607
GGTCTACCATGGACCGGTTTTCCCGGTAATCCGTATTTGCA (site GGTCTACCTTG)	0
GGTGCTGCATGGACCGGTTTTCCCGGTAATCCGTATTTGTG (site GGTGCTGCTCA)	0.0597
GGTGGTGCATGGACCGGTTTTCCCGGTAATCCGTATTTGAC (site GGTGGTGCTGT)	2.18
GGTGTGGCATGGACCGGTTTTCCCGGTAATCCGTATTTGGT (site GGAGTGGCTAC)	0.128

Sequence	recombinant UMI read abundance (log10)
GGTGTGGCATGGACCGGTTTTCCCGGTAATCCGTATTTGGT (site GGCGTGGCTAC)	0.0168
GGTGTGGCATGGACCGGTTTTCCCGGTAATCCGTATTTGGT (site GGGGTGGCTAC)	0.145
GGTGTGGCATGGACCGGTTTTCCCGGTAATCCGTATTTGGT (site GGTGTGGCTAC)	0.636
GGTGTTACATGGACCGGTTTTCCCGGTAATCCGTATTTGTT (site GGTGTTACTAA)	0.51
GGTGTTCCATGGACCGGTTTTCCCGGTAATCCGTATTTGGC (site GGTGTTCCTGC)	0
GGTGTTCCATGGACCGGTTTTCCCGGTAATCCGTATTTGTT (site GGTGTTCCTAA)	0.00351
GGTTCCGCATGGACCGGTTTTCCCGGTAATCCGTATTTGCG (site GGTTCCGCTCG)	0
GGTTCGTCATGGACCGGTTTTCCCGGTAATCCGTATTTGTT (site GGTACGTCTAA)	0.0147
GGTTCGTCATGGACCGGTTTTCCCGGTAATCCGTATTTGTT (site GGTCCGTCTAA)	0.0123
GGTTCGTCATGGACCGGTTTTCCCGGTAATCCGTATTTGTT (site GGTGCGTCTAA)	0.00284
GGTTCGTCATGGACCGGTTTTCCCGGTAATCCGTATTTGTT (site GGTTCGTCTAA)	0.351
GGTTTCACATGGACCGGTTTTCCCGGTAATCCGTATTTGTA (site GGTTTCACTTA)	0.519
GTAAATCCATGGACCGGTTTTCCCGGTAATCCGTATTTGGG (site GTAAATCCTCC)	0.325
GTAATAACATGGACCGGTTTTCCCGGTAATCCGTATTTGGG (site GTAATAACTCC)	0.656
GTAATCTCATGGACCGGTTTTCCCGGTAATCCGTATTTGTA (site GTAATCTCTTA)	2.83
GTACATGCATGGACCGGTTTTCCCGGTAATCCGTATTTGGT (site GTACATGCTAC)	1.43
GTACATGCATGGACCGGTTTTCCCGGTAATCCGTATTTGGT (site GTCCATGCTAC)	0.0463
GTACATGCATGGACCGGTTTTCCCGGTAATCCGTATTTGGT (site GTGCATGCTAC)	0.0209
GTACATGCATGGACCGGTTTTCCCGGTAATCCGTATTTGGT (site GTTCATGCTAC)	0.184

Sequence	recombinant UMI read abundance (log10)
GTACATTCATGGACCGGTTTTCCCGGTAATCCGTATTTGTG (site GTACATTCTCA)	2.5
GTACGTACATGGACCGGTTTTCCCGGTAATCCGTATTTGAC (site GTAAGTACTGT)	0.00784
GTACGTACATGGACCGGTTTTCCCGGTAATCCGTATTTGAC (site GTACGTACTGT)	2.51
GTACGTACATGGACCGGTTTTCCCGGTAATCCGTATTTGAC (site GTAGGTACTGT)	0.0679
GTACGTACATGGACCGGTTTTCCCGGTAATCCGTATTTGAC (site GTATGTACTGT)	0.00913
GTACTCGCATGGACCGGTTTTCCCGGTAATCCGTATTTGCG (site GTAATCGCTCG)	0.0162
GTACTCGCATGGACCGGTTTTCCCGGTAATCCGTATTTGCG (site GTACTCGCTCG)	0.0142
GTACTCGCATGGACCGGTTTTCCCGGTAATCCGTATTTGCG (site GTAGTCGCTCG)	0.00832
GTACTCGCATGGACCGGTTTTCCCGGTAATCCGTATTTGCG (site GTATTCGCTCG)	0.00972
GTAGACGCATGGACCGGTTTTCCCGGTAATCCGTATTTGCG (site GTAGACGCTCG)	2.33
GTAGACGCATGGACCGGTTTTCCCGGTAATCCGTATTTGCG (site GTAGCCGCTCG)	0.0374
GTAGACGCATGGACCGGTTTTCCCGGTAATCCGTATTTGCG (site GTAGGCGCTCG)	1.39
GTAGACGCATGGACCGGTTTTCCCGGTAATCCGTATTTGCG (site GTAGTCGCTCG)	0.182
GTAGATTCATGGACCGGTTTTCCCGGTAATCCGTATTTGTT (site GAAGATTCTAA)	0.559
GTAGATTCATGGACCGGTTTTCCCGGTAATCCGTATTTGTT (site GCAGATTCTAA)	1.63
GTAGATTCATGGACCGGTTTTCCCGGTAATCCGTATTTGTT (site GGAGATTCTAA)	0.98
GTAGATTCATGGACCGGTTTTCCCGGTAATCCGTATTTGTT (site GTAGATTCTAA)	3.02
GTAGCTGCATGGACCGGTTTTCCCGGTAATCCGTATTTGTG (site ATAGCTGCTCA)	0.436
GTAGCTGCATGGACCGGTTTTCCCGGTAATCCGTATTTGTG (site CTAGCTGCTCA)	0.54
